From patent US7629318B2, “Immunosuppressant compounds, methods and uses related thereto” (priority 2002, dated 2009)
Square brackets hold non-standard residues; d marks the D form. Peptide text beside a SMILES is read from it. * marks the point of attachment. Gly(1-amidinopiperidin-4-yl) = N=C(N)N1CCC([C@H](N)C(=O)O)CC1; Tetrahydroisoquinolin(2-yl) = c1ccc2c(c1)CCN(*)C2; N(Me)CH2CH2Ph = CN(CCc1ccccc1)*; Tic = O=C(O)[C@@H]1Cc2ccccc2CN1; Cha = N[C@@H](CC1CCCCC1)C(=O)O; X4 = OCCOCCN(CCc1ccccc1)*; Nle = CCCC[C@H](N)C(=O)O; X2 = OCCOCCN(Cc1ccccc1)*; X5 = OCCN(Cc1ccccc1)*

Assays:
[1] = target: DR4Dw4 (DRA1*0101 DRB1*0401) (Homo sapiens, UniProt P01903+P01911, A100K/A169T/F76Y/I96L/K127E/L162R/M171V/N62H/P40V/Q125Y/R42H/S133A/S149N/S66Y/V115G/V209L/W38E); experiment: Competitive binding to MHC-II protein DR4Dw4
Experimental: (§1) Interaction mixtures lacking the peptidomimetic compound and both peptide mimetic compound and MHC-II were used as positive and negative controls, respectively. All interaction mixtures were set up in duplicates and were incubated for 16 hours at room temperature.
(§2) After washing with PBS, 60 μl of the MHC-II-compound interaction mixtures were transferred from the interaction plate to the appropriate wells of the capture plate and incubated for 2 h at 4° C. The wells were washed six times with 200 μl/well of cooled (4 to 8° C.) 1×DELFIA wash (Wallac-ADL-GmbH, Freiburg), incubated with 100 μl of cooled Europium-streptavidin conjugate (Wallac-ADL-GmbH, Freiburg; diluted 1/1000 with DELFIA assay buffer) for 30 minutes at 4° C., again washed six times with cooled 1×DELFIA wash and, finally, incubated with 200 μl cooled DELFIA enhancement solution (Wallac-ADL-GmbH, Freiburg) for one hour at room temperature before reading the time-resolved europium fluorescence at λex Eu^3+: 340 nm and λem Eu^3+: 613 (615) nm (Wallac Victor^2 1420 Multilabel Counter, Wallac-ADL-GmbH, Freiburg).

[2] = target: DR1 (DRA1*0101 DRB1*0101) (Homo sapiens, UniProt P01903+P01911, A100R/D57E/F55L/F60I/F76Y/I96L/L162R/M171V/P40L/Q125E/R42F/V115G/Y59C); experiment: Competitive binding to MHC-II protein DR1; conditions: Protein binding IC50 (nM) 0101, 0101
Experimental: as §1, §2

[3] = target: DR4Dw14 (DRA1*0101 DRB1*0404) (Homo sapiens, UniProt P01903+P01911, A100R/A169T/F76Y/I96L/K127E/L162R/M171V/N62H/P40V/Q125Y/R42H/S133A/S149N/S66Y/V209L/W38E); experiment: Competitive binding to MHC-II protein DR4Dw14; conditions: 0404; read-out: Protein binding IC50 (nM) 0404
Experimental: as §1, §2

[4] = Stability of compounds in rat blood plasma; format: in vitro ADME
Experimental: (§3) The stability of the peptidomimetic compounds was determined in rat (Charles River Laboratories, Sulzfeld), mouse (Charles River Laboratories, Sulzfeld) and human (Bayerisches Rotes Kreuz, München) blood plasma (E. R. Garrett and M. R. Gardner, J Pharmaceutical Sciences 71 (1982) 14-25).
(§4) Compound stock solutions were diluted into blood plasma to give a final compound concentration of 5 μM and the mixtures were incubated at 37° C. At 0, 6 and 24 hours 1 ml samples were drawn and the plasma proteins were precipitated by the addition of 3 ml acetonitrile p.a. and whirlmixing. The precipitate was pelleted by centrifugation at 2000 g for 5 minutes. The supernatant was evaporated off to dryness and the residue was reconstituted in 400 μl 50% acetonitrile, 0.1% TFA in water.
(§5) PBS controls were prepared for unstable compounds accordingly.

[5] = Stability of compounds in mouse blood plasma; format: in vitro ADME
Experimental: as §3, §4, §5

[6] = Stability of compounds in human blood plasma; format: in vitro ADME
Experimental: as §3, §4, §5

[7] = target: Cathepsin D (EC 3.4.23.5 from bovine spleen) (Bos taurus, UniProt P80209)
Experimental: The stability of the peptidomimetic compounds towards lysosomal degradation was examined by incubation with Cathepsin B1 (EC 3.4.22.1 from bovine spleen; Sigma-Aldrich, Taufkirchen; dissolved at 10000 U/l in ddH2O) and D (EC 3.4.23.5 from bovine spleen; Sigma-Aldrich, Taufkirchen; dissolved at 10000 U/l in ddH2O) for four hours at 37° C. using a compound concentration of 50 μM and an enzyme/substrate ratio of 0.4 U/μmol. The samples contained 25 ppm 4-isopropyl benzyl alcohol (IPBA; Sigma-Aldrich, Taufkirchen) as internal standard.
Assay buffer was prepared by adding 35 μl of a 1% IPBA in DMSO solution and 28 μl of a 10000 U/l Cathepsin B1 or Cathepsin D stock solution to 14 ml of 100 mM sodium acetate, 1 mM EDTA, 1 mM DTT, pH 5.00 or 100 mM sodium acetate, pH 4.50, respectively. 8.8 μl of a 5 mM (or 4.4 μl of a 10 mM) compound stock solution (in 10% DMSO/water) were placed into a 1.5 ml Eppendorf tube. The reaction was started by adding 875 μl fully supplemented assay buffer to each tube, whirlmixing and incubation at 37° C. At 0 and 4 hours 400 μl samples were taken and the enzyme was inactivated by addition of 40 μl […] TFA aq. The samples were kept frozen at −20° C. until analysis by RP-HPLC (200 μl injection volume; Nucleosil 100-5 C18, 12.5×4.6 cm; Gradient: 20-50% acetonitrile in 30 min).
Compounds co-eluting with the internal standard during RP-HPLC analysis were tested without the standard as Example 16.

[8] = system: T-cell proliferation, lymph node cells of chimeric 0401-IE transgenic mice; conditions: DR4-LN; for Immunsupressive assays DR4-LN (Max) % Inhibition: maximal inhibition; for IC50: read-out: Immunsupressive assays DR4-LN (IC50)
Experimental: The compounds were tested as follows to inhibit the proliferative T cell response of antigen-primed lymph node cells from mice carrying a chimeric mouse-human class II transgene with an RA-associated peptide binding site, and lack murine class II molecules (Muller et al., 1990; Woods et al., 1994; Current Protocols in Immunology, Vol. 2, 7.21; Ito et al., 1996). Here, the immunization takes place in vivo, but the inhibition and readout are ex vivo. […] These mice lack murine MHC class II, and thus, all Th responses are channelled through a single human RA-associated MHC class II molecule (Ito et al. 1996). These transgenic mice represent a model for testing human class II antagonists.
1.5×10^5 cells are incubated in 0.2 ml wells of 96-well tissue culture plates in the presence of ovalbumin (30 μg per well—half-maximal stimulatory concentration) and a dilution series of the compound under test (from around 0.1 to 200 uM) in serum free HL-1 medium containing 2 mM L-glutamine and 0.1 g/l Kanamycin for three days. Antigen specific proliferation is measured by 3H-methyl-thymidine (1 μCi/well) incorporation during the last 16 h of culture (Falcioni et al., 1999). Cells are harvested, and 3H incorporation measured using a scintillation counter (TopCount, Wallac Finland).

[9] = target: Cathepsin B1 (EC 3.4.22.1 from bovine spleen) (Bos taurus, UniProt P07688); conditions: Cathepsin B, 4 h
[10] = system: T-cell proliferation, DR14-LN; conditions: for IC50: read-out: Immunsupressive assays DR14-LN (IC50); for Immunsupressive assays DR14-LN (Max) % Inhibition: maximal inhibition

Row | Compound | IC50 [1] [µM] | IC50 [2] [nM] | IC50 [3] [nM] | Stability (Arbitrary units) Rat 6 h [4] [Arbitrary units] | Stability (Arbitrary units) Rat 24 h [4] [Arbitrary units] | Stability (Arbitrary units) Mouse 6 h [5] [Arbitrary units] | Stability (Arbitrary units) Mouse 24 h [5] [Arbitrary units] | Stability (Arbitrary units) Human 6 h [6] [Arbitrary units] | Stability (Arbitrary units) Human 24 h [6] [Arbitrary units] | Stability (Arbitrary units) Cath D 4 h [7] [Arbitrary units] | Immunsupressive assays DR4-LN (Max) % Inhibition [8] [%] | IC50 [8] [µM] | Stability (Arbitrary units) Cath B 4 h [9] [Arbitrary units] | IC50 [10] [µM] | Immunsupressive assays DR14-LN (Max) % Inhibition [10] [%]
1 | CCCC[C@H](NC(=O)[C@@H]1Cc2ccccc2CN1C(=O)[C@H](CCCNC(=N)N)NC(=O)[C@H](CC1CCCCC1)NC(C)=O)C(=O)N(CCOCCO)Cc1ccccc1 [Compound P98, Ac-Cha-Arg-Tic-Nle-N(Bn)CH2CH2OCH2CH2OH] (Ac-[Cha]R[Tic][Nle]-X2) | 4.7 | 640 | 1300 | 71 | 60 | 87 | 54 | 116 | 121 | 104 | 67 | 69 | 104 | > 200 | –
2 | CCCC[C@H](NC(=O)[C@@H]1Cc2ccccc2CN1C(=O)[C@@H](NC(=O)[C@H](CC1CCCCC1)NC(C)=O)C1CCN(C(=N)N)CC1)C(=O)N1CCc2ccccc2C1 [Compound P77, Ac-Cha-Gpg-Tic-Nle-tetrahydroisoquinoline] (Ac-[Cha][Gly(1-amidinopiperidin-4-yl)][Tic][Nle]-{Tetrahydroisoquinolin(2-yl)}) | 8.7 | 1900 | 3600 | 129 | 57 | 141 | 181 | 111 | 114 | 95 | 100 | 10 | 107 | 14 | 99
3 | CCCC[C@H](NC(=O)[C@@H]1Cc2ccccc2CN1C(=O)[C@@H](NC(=O)[C@H](CC1CCCCC1)NC(C)=O)C1CCN(C(=N)N)CC1)C(=O)N(CCO)Cc1ccccc1 [Compound P78, Ac-Cha-Gpg-Tic-Nle-N(Bn)CH2CH2OH] (Ac-[Cha][Gly(1-amidinopiperidin-4-yl)][Tic][Nle]-X5) | 2.6 | 430 | 1200 | 184 | 107 | 90 | 113 | 73 | 130 | 108 | 97 | 36 | 100 | 36 | 100
4 | CCCC[C@H](NC(=O)[C@@H]1Cc2ccccc2CN1C(=O)[C@H](CCCNC(=N)N)NC(=O)[C@H](CC1CCCCC1)NC(C)=O)C(=O)N(C)CCc1ccccc1 [Compound P83, Ac-Cha-Arg-Tic-Nle-N(Me)CH2CH2Ph] (Ac-[Cha]R[Tic][Nle]-{N(Me)CH2CH2Ph}) | 24 | 1300 | 11000 | 69 | 85 | 93 | 58 | – | – | 98 | – | – | 100 | 13 | 100
5 | CCCC[C@H](NC(=O)[C@@H]1Cc2ccccc2CN1C(=O)[C@H](CCCNC(=N)N)NC(=O)[C@H](CC1CCCCC1)NC(C)=O)C(=O)N(CCOCCO)CCc1ccccc1 [Compound P88] (Ac-[Cha]R[Tic][Nle]-X4) | 10 | 2000 | 5700 | 77 | 55 | 125 | 128 | 133 | 123 | 101 | – | 105 | 94 | 37 | –
